# Test results from patent publication US11149300B1, “Methods of treating gastrointestinal malignancies” (Cedars-Sinai Medical Center, priority 2018, dated 2021).
# Where a name gives a salt, the structure may show the parent alone. Read-outs that look alike come from different tables or passages of the source.
# What was measured:
# [1] = tested on: C-41 cells; conditions: cited from earlier work
# [2] = cited from earlier work
# [3] = tested on: PARP; conditions: cited from earlier work
# [4] = monkey; cited from earlier work
# [5] = dog, 5 μM; cited from earlier work
# [6] = 8-hour incubation; cited from earlier work
# [7] = molecular target: human 5-HT7 (Homo sapiens, UniProt P34969); conditions: 10 μM (2.4 μg/mL); cited from earlier work
# [8] = mice, cited from earlier work
# [9] = cited from earlier work; remark: listed apart in the source
# [10] = cited from earlier work; remark: listed apart in the source
# [11] = tested on: PAR in PBMCs and tumor; conditions: cited from earlier work; for treatment related adverse events: single dose 10 or 25 mg
# [12] = anesthetized dog cardiovascular model
# [13] = tested on: locally advanced or borderline resectable pancreatic cancer; assay: Phase I VelGemRad trial, PFS and OS, overall and by DDR biomarker
# Description: RNA-seq libraries were prepared from pre-treatment tumor biopsies. The database for annotation, visualization, and integrated discovery (DAVID) v6.7 was used to interpret the differential expression genes data. Cox regression model was used to identify DNA damage related pathways associated with patient survivals.
# The secondary objective was to measure the clinical activity of the treatment (progression free survival—PFS, overall survival—OS) and evaluate patient tumor or blood pre-, during and post treatment for DNA damage repair alterations, PAR levels and immune mediators. Between 2013 and 2016, 34 patients enrolled at a single institution. Four were removed due to non-compliance. The median age was 67 and 24 were LAPC and 6 were borderline resectable prostate cancer (BR).
# Treatment naïve patients with LA or borderline resectable pancreatic cancer (BR) were treated with weekly G (1000 mg/m^2), daily RT (36 Gy/15 fractions) and V 20 mg BID daily for 3 weeks escalated per Bayesian method followed by standard chemotherapy. DAVID v6.7 was used to interpret transcriptomic differential expression of genes. Cox regression model was used to identify DDR pathways associated with survival. […] The log-rank test was used to evaluate differences in PFS and OS.
# [14] = tested on: Breast carcinoma (human MX-1); conditions: agent combined with veliparib; cited from earlier work
# [15] = tested on: pancreatic cancer; conditions: in vivo; cited from earlier work
# [16] = repeated dose toxicity, sole agent; type: in vivo, rats; conditions: no adverse effects, highest dose tested
# [17] = repeated dose toxicity in conjunction with cisplatin; type: in vivo, rats
# [18] = highest dose tested; cited from earlier work
# [19] = cited from earlier work; remark: listed apart in the source
# [20] = in vitro; cited from earlier work
# [21] = repeated dose (2-week) toxicology study; conditions: 30 mg base/kg/day
# [22] = tested on: locally advanced and metastatic pancreatic carcinomas; conditions: cited from earlier work
# [23] = tested on: pancreatic cancer; conditions: cited from earlier work
# [24] = tested on: locally advanced and metastatic pancreatic adenocarcinoma; conditions: cited from earlier work
# [25] = tested on: unresectable pancreatic cancer; conditions: cited from earlier work
# [26] = tested on: pancreatic cancer; conditions: full-dose gemcitabine with 36 Gy; cited from earlier work
# [27] = human, in vivo; cited from earlier work
# [28] = tested on: metastatic triple negative breast cancer; conditions: cited from earlier work
# [29] = tested on: Melanoma (murine B16F10); conditions: agent combined with veliparib; cited from earlier work
# [30] = tested on: B Cell lymphoma (human DOHH2); conditions: agent combined with veliparib; cited from earlier work
# [31] = in vivo; cited from earlier work
# [32] = all patients, with gemcitabine and IMRT
# [33] = biomarker positive (+), DNA repair defects by gene expression
# Chain of human 5-HT7 (P34969 whole entry): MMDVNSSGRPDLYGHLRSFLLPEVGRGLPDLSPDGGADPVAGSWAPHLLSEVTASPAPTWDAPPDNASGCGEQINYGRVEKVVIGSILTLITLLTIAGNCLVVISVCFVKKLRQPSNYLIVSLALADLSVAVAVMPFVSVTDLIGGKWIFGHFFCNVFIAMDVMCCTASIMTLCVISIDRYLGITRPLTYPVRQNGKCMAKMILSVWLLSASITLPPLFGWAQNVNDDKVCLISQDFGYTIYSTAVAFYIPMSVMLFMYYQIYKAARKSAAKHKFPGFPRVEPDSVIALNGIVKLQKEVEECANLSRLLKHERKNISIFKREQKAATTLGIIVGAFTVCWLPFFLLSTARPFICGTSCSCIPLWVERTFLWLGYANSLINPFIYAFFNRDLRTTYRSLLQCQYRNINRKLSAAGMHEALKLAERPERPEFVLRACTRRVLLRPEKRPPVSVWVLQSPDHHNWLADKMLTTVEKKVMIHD
smiles,measurement,setting,value
C[C@]1(c2nc3c(C(N)=O)cccc3[nH]2)CCCN1 [veliparib],γ-H2AX foci (DNA damage),[1]; added to 1 mM temozolomide,further potentiated
same,DNA damage caused by irinotecan,[1]; with irinotecan,potentiates
same,potentiation of cisplatin,[2]; long-term clonogenic assay,potentiation was observed
same,potentiation of cisplatin,[2]; short-term cytotoxicity assay,not in the short-term cytotoxicity assay
same,inhibition of PARP activity in tumors,"[3]; 12.5, 5 and 1 mg/kg/day, vehicle and temozolomide treated groups",significant
same,PAR formation in tumors,"[3]; veliparib alone, two hours after administration",inhibited PAR formation in B16F10 tumors in a dose-dependent manner
same,oral bioavailability,[4],56.1%
same,"protein binding in plasma, % bound",[5],42%
same,stability in plasma,[6],very stable
same,displacement of control-specific binding,[7],84%
same,outcome after electrically-induced tonic convulsions,[8]; 100 mg/kg PO,increased incidence of death
same,outcome in audiogenic seizure model,[8],Death was also noted
same,seizures,"[9]; 60 mg/kg/day, 30 mg/kg twice daily or 30 mg/kg every day",seizures were also noted
same,non-toxic dose in the most sensitive mammalian species,[9]; beagle dogs,300 mg/m^2
same,plasma concentrations in dogs with seizures,"[9]; dog, in vivo",> 5400 ng/mL
same,change in mean arterial pressure versus baseline,[10]; 12.96 μg/mL,−16±5%
same,change in systemic vascular resistance versus baseline,[10]; 12.96 μg/mL,−10±7%
same,QTcV prolongation above baseline,[10]; 12.96±0.92 μg/mL,15±3%
same,mean plasma concentration with modest haemodynamic effects,"[10]; dog, in vivo",12960 ± 920 ng/mL
same,mean plasma concentration without haemodynamic change,"[10]; dog, in vivo",4450 ± 130 ng/mL
same,"mean arterial pressure, heart rate, dP/dtmax, pulmonary arterial pressure, vascular resistance",[10]; mean plasma concentrations up to 4.45 μg/mL,no physiologically relevant changes
same,"delayed repolarization (QTc intervals), trend",[10]; plasma concentrations 21-fold predicted Cmax,7%
same,patients exceeding target plasma Cmax of 210 nM,[11]; 10 mg dose level,2 of 3 patients
same,patients exceeding target plasma Cmax of 210 nM for at least 4 hours,[11]; 25 mg dose level,all three patients
same,reduction of PAR levels from baseline,"[11]; single 25 mg dose, PBMCs and tumor samples",80-99%
same,treatment related adverse events,[11],No treatment related adverse events
same,treatment related adverse events,[11]; listed as ABT-888,no treatment related adverse events
same,multiple of predicted clinical Cmax,[12]; at 4.45 μg/mL,21 fold
same,multiple of predicted clinical Cmax,[12]; at 12.96 μg/mL,62 fold
same,multiple of predicted clinical Cmax at which QT prolongation was seen,"[12]; dog, in vivo",21 fold
same,median OS,[13]; FA biomarker (+),18 months
same,median OS,[13]; FA biomarker (−),12 months
same,median OS,[13]; MMR biomarker (+),18 months
same,median OS,[13]; MMR biomarker (−),12 months
same,median OS,[13]; NER biomarker (+),22 months
same,median OS,[13]; NER biomarker (−),12 months
same,median overall survival (OS),[13]; [32],14.6 months
same,median progression free survival (PFS),[13]; [32],9.8 months
same,median OS,[13]; biomarker negative (−),12 mos
same,median PFS,[13]; biomarker negative (−),8 mos
same,median OS,[13]; [33],22 mos
same,median PFS,[13]; [33],17 mos
O=P1(N(CCCl)CCCl)NCCCO1 (stereo not shown) [Cyclophosphamide],veliparib mediated potentiation of cytotoxic agent,[14],Yes
O=c1[nH]cc(F)c(=O)[nH]1 [5 FU],median survival,[15],4.41 months
same,patients with clinical benefit,[15],5%
C[C@]1(c2nc3c(C(N)=O)cccc3[nH]2)CCCN1 [veliparib dihydrochloride],Cmax as multiple of estimated therapeutic peak plasma concentration,[16],greater than 19 fold
same,Cmax as multiple of estimated therapeutic peak plasma concentration,[17]; highest dose with cisplatin,22 fold
same,Cmax as multiple of estimated therapeutic value,[17]; no clinically meaningful exacerbation,up to 8 fold
same,toxic findings,[9]; 30 mg base/kg/day,"emesis, body weight losses related to anorexia, and convulsions"
same,"adverse effects, sole agent",[18],did not result in adverse effects
same,exacerbation of cisplatin-associated toxicity,[19]; highest dose with cisplatin,Exacerbation of cisplatin-associated toxicity
same,exacerbation of cisplatin-associated toxicity,[19]; lower doses with cisplatin,no clinically meaningful exacerbations
same,clastogenicity,[20],negative
same,mutagenicity,[20],negative
same,Cmax as multiple of estimated therapeutic peak plasma concentration,[21],26 fold
"Nc1ccn([C@@H]2O[C@H](CO)[C@@H](O)C2(F)F)c(=O)n1 [gemcitabine, 2′,2′-Difluoro-2′-deoxycytidine]",median survival,[15],5.56 months
same,patients with clinical benefit,[15],~25%
same,response rates,[22]; chemo naïve patients,up to 42%
same,response rates,[22]; heavily pretreated patients,11-22%
same,objective responses,"[23]; combined arm, gemcitabine 600 mg/m^2 with 50.4 Gy",8.8%
same,Grade IV toxicity,[23]; combined group,41.2%
same,objective responses,[23]; gemcitabine alone arm (1000 mg/m^2),2.7%
same,Grade IV toxicity,[23]; gemcitabine alone,5.7%
same,intracellular gemcitabine triphosphate concentration,[24]; FDR arm versus standard,two-fold increase
same,median survival,"[24]; FDR arm, 1,500 mg/m^2 over 150 minutes",8.0 months
same,hematologic toxicity,[24]; FDR infusion arm,increased but acceptable hematologic toxicity
same,median survival,"[24]; standard arm, 2,200 mg/m^2 over 30 minutes",5.0 months
same,patients with DLT,[25]; FDR-G with IMRT 50-60 Gy,6 patients
same,median overall survival,[25]; in vivo,23.1 months
same,median progression-free survival,[25]; in vivo,7.2 months
same,response rate,[25]; in vivo,52.4%
same,disease control rates,[26],84.6%
same,response rates,[26],5.1%
same,tolerability,[26],well-tolerated
same,time to steady-state plasma levels after starting infusion,[27],≤ 15 min
NC(=O)c1ccc(I)c([N+](=O)[O-])c1 [BSI-201],frequency and nature of adverse events,[28]; in vivo,did not differ between arms
same,clinical outcome versus chemotherapy alone,[28]; with gemcitabine 1000 mg/m^2 and carboplatin AUC=2,"improved CBR, median PFS, and median OS"
CCc1c2c(nc3ccc(OC(=O)N4CCC(N5CCCCC5)CC4)cc13)-c1cc3c(c(=O)n1C2)COC(=O)[C@]3(O)CC [Irinotecan],veliparib mediated potentiation of cytotoxic agent,[29],Yes
N.N.[Cl][Pt][Cl] [Cisplatin],veliparib mediated potentiation of cytotoxic agent,[14],Yes
same,veliparib mediated potentiation of cytotoxic agent,[30],No
CC1(c2nc3c(C(N)=O)cccc3[nH]2)CCC(=O)N1 (stereo not shown) [A-925088],route of clearance,[31],cleared primarily in the urine
N.N.O=C([O-])C1(C(=O)[O-])CCC1.[Pt+2] [Carboplatin],veliparib mediated potentiation of cytotoxic agent,[14],Yes
